Data published in ChEMBL document CHEMBL4507319 (2021).

Experiments:
Details in all cases: Compound concentration 1.0 uM
[1] = biological target: Cyclin-dependent kinase 2/cyclin E (Homo sapiens) (UniProt P24864+P24941+O96020); experiment: CDK2/cyclinE(h) Eurofins kinase panel; format: protein-complex assay
[2] = biological target: Dual specificity mitogen-activated protein kinase kinase 1 (Homo sapiens) (UniProt Q02750); experiment: MEK1(h) Eurofins kinase panel
[3] = biological target: T1, Myosin light chain kinase (Homo sapiens) (UniProt Q32MK0); experiment: MLCK(h) Eurofins kinase panel
T1 sequence (whole entry): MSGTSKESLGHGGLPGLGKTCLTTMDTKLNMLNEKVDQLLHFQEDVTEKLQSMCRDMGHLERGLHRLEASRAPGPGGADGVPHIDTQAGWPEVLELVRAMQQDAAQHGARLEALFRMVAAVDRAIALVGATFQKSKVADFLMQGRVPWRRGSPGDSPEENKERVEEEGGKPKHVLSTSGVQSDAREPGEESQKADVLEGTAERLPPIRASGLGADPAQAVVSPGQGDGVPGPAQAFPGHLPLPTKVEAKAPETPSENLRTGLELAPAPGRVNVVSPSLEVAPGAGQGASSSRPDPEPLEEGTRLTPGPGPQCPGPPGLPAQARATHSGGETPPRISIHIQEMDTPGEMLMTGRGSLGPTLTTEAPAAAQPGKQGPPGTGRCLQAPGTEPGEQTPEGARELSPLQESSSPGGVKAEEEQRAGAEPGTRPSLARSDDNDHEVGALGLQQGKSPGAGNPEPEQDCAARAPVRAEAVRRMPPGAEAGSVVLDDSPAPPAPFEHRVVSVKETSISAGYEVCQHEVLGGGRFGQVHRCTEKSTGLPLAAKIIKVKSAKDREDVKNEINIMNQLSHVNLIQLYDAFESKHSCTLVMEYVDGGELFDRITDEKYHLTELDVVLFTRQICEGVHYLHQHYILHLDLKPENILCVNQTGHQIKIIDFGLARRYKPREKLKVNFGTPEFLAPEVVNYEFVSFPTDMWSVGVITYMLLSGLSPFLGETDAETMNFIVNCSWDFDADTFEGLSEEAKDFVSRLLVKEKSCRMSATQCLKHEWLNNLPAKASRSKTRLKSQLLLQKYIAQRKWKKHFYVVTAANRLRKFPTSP

[4] = biological target: T2, SNF-related serine/threonine-protein kinase (Homo sapiens) (UniProt Q9NRH2); experiment: SNRK(h) Eurofins kinase panel
T2 sequence (whole entry): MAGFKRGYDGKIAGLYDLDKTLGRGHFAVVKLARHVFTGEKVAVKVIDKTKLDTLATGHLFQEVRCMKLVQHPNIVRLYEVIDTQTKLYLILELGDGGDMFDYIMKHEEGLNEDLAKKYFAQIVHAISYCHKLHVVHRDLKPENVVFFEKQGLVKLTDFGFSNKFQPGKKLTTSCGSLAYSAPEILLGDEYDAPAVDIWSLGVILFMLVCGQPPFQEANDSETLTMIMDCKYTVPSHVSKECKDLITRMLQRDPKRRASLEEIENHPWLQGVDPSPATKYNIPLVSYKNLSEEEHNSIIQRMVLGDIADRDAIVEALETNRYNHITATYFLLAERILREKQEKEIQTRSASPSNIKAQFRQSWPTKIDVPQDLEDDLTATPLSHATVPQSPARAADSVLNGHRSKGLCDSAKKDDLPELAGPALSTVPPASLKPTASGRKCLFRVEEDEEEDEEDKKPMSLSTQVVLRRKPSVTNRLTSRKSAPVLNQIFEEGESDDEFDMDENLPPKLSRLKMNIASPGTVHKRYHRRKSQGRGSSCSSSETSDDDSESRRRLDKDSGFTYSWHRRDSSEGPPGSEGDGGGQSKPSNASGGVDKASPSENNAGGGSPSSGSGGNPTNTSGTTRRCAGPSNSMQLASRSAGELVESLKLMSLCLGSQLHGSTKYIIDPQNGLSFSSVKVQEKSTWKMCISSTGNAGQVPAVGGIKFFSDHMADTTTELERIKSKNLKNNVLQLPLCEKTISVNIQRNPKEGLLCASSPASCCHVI

[5] = biological target: T3, Serine/threonine-protein kinase TAO2 (Homo sapiens) (UniProt Q9UL54); experiment: TAO2(h) Eurofins kinase panel
T3 sequence (whole entry): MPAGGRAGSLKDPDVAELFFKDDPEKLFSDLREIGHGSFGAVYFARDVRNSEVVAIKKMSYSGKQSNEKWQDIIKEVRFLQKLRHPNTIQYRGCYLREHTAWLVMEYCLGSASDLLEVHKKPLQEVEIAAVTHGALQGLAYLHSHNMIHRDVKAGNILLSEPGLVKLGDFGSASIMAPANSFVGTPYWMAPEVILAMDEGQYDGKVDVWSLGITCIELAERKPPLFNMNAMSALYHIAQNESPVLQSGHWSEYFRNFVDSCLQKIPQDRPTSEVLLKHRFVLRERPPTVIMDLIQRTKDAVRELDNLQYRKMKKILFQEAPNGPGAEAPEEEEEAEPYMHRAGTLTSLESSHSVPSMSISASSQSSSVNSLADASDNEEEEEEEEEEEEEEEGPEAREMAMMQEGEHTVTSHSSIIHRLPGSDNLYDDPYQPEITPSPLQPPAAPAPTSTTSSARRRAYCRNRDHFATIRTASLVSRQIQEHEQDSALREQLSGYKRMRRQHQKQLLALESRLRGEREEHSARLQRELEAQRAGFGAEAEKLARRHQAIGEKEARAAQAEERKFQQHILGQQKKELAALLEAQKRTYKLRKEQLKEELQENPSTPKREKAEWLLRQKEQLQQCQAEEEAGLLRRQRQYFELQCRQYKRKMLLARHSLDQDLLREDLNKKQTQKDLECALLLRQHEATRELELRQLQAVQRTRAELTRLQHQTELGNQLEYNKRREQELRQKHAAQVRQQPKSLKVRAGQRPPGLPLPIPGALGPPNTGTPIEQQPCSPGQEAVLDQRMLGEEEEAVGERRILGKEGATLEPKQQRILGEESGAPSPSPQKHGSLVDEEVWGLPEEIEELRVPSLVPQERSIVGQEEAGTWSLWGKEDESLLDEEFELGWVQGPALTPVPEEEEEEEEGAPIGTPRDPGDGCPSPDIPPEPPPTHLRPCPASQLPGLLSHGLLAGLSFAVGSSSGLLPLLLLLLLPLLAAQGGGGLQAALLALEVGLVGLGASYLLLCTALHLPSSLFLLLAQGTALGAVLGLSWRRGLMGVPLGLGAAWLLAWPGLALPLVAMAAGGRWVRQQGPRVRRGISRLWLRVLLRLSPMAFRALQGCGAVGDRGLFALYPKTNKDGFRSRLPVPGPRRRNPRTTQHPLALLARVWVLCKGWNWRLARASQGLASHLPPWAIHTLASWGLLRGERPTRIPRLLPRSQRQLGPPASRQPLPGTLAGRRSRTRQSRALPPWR

[6] = biological target: Phosphatidylinositol 4,5-bisphosphate 3-kinase catalytic subunit gamma isoform (Homo sapiens) (UniProt P48736); experiment: PI3 Kinase (p120g)(h) Eurofins kinase panel
Sequence of Phosphatidylinositol 4,5-bisphosphate 3-kinase catalytic subunit gamma isoform (Homo sapiens) (P48736 whole entry, looked up, canonical isoform): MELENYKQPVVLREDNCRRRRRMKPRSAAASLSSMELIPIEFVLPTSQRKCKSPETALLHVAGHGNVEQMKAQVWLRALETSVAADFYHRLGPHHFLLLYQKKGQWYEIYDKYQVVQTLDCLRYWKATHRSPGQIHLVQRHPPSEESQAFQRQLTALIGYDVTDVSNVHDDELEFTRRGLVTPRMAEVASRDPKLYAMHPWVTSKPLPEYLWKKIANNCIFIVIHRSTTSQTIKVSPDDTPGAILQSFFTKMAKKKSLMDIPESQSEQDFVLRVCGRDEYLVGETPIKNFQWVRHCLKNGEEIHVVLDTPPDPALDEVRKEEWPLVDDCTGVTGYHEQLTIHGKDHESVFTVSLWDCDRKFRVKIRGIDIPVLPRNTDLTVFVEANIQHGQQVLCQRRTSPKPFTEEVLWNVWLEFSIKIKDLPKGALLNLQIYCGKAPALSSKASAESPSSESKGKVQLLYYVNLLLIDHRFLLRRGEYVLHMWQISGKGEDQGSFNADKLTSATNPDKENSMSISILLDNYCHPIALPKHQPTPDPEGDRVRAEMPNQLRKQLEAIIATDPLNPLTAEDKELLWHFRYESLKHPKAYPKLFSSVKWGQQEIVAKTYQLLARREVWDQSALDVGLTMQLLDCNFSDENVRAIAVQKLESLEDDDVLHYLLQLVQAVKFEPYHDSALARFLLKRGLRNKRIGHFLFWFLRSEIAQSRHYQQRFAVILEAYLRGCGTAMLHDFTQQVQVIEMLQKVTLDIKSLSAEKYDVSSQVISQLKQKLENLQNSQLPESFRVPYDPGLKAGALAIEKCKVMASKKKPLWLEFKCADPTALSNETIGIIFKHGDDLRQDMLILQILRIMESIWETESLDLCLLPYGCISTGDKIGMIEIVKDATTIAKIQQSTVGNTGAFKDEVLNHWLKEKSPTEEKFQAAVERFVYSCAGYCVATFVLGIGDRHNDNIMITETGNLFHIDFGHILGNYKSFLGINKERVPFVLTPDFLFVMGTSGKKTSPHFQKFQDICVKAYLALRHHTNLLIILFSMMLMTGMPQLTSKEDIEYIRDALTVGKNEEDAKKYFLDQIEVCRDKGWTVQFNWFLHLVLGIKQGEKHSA

Measured: % residual kinase activity

Sequence of Dual specificity mitogen-activated protein kinase kinase 1 (Homo sapiens) (Q02750 whole entry): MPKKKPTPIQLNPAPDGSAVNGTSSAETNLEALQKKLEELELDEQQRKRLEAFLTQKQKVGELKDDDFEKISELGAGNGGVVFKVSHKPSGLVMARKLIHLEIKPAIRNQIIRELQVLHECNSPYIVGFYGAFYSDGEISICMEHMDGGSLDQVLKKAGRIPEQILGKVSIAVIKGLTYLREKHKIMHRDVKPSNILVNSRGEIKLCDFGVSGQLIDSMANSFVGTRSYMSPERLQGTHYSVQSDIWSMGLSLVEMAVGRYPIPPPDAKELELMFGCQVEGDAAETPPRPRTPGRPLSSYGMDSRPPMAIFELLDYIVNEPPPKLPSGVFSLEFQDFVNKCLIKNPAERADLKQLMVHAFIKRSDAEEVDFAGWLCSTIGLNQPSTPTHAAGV

CCc1ccccc1C(=O)Nc1n[nH]c2c(C)c(F)c(C3C(C#N)=C(C)N(C)C(C)=C3C#N)cc12 [BAY-3827]
inactive: [1] 92% | [2] 90% | [3] 32% | [4] 113% | [5] 104% | [6] 99%
